Data published in PubChem BioAssay AID2060889 (Molecular Pharmacology Branch, DTP, NCI, 2025).

System: LG0567-F671-PDC complex spheroids viability
Assay: Anticancer human tumor LG0567-F671-PDC patient-derived lung adenocarcinoma cell line growth inhibition [RAS]
Conditions: for IC50: curve of first compound; for viability, T/C: stronger effect = lower value
Summary of the method: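 Tumour cells grown as complex spheroids with HUVEC endothelial cells and mesenchymal stem cells, treated with RAS pathway inhibitor combinations. Each agent spans half-log steps from near clinical Cmax, or 10 microM where Cmax is unknown.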
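Also: spheroids exposed to compound for seven days before readout.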
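For IC50 in this document: luminescence signal used as a proxy for viable cells.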

In the case of `CC1(C)CCC(Nc2ncc(C(F)(F)F)c(-c3c[nH]c4c(P(C)(C)=O)c(C#N)ccc34)n2)CN1` (centres undefined) + CCn1c(-c2cc(N3CCN(C)CC3)cnc2C(C)OC)c2c3cc(ccc31)-c1csc(n1)CC(NC(=O)C1CC1C)C(=O)N1CCCC(N1)C(=O)OCC(C)(C)C2, the IC50 (second compound 0.000949 µM) is reported as < 0.949 nM, the IC50 (second compound 0.003 µM) is reported as < 0.949 nM and the IC50 (second compound 0.00949 µM) is reported as < 0.949 nM. The IC50 (second compound 0.03 µM) was < 0.949 nM, the IC50 (second compound 0.0949 µM) was < 0.949 nM and the IC50 (second compound 0.3 µM) was < 0.949 nM. The viability, T/C (second compound 0.000949 µM, first compound 0.000949 µM) was 18.6%, the viability, T/C (second compound 0.000949 µM, first compound 0.003 µM) was 17.4% and the viability, T/C (second compound 0.000949 µM, first compound 0.00949 µM) was 15.6%. For the same molecule, the viability, T/C (second compound 0.000949 µM, first compound 0.03 µM) was 18.6%, the viability, T/C (second compound 0.000949 µM, first compound 0.0949 µM) was 19.4% and the viability, T/C (second compound 0.000949 µM, first compound 0.3 µM) was 20.3%. For the same molecule, the viability, T/C (second compound 0.003 µM, first compound 0.000949 µM) was 9.04%, the viability, T/C (second compound 0.003 µM, first compound 0.003 µM) was 8.93% and the viability, T/C (second compound 0.003 µM, first compound 0.00949 µM) was 9.61%. The viability, T/C (second compound 0.003 µM, first compound 0.03 µM) was 8.68%, the viability, T/C (second compound 0.003 µM, first compound 0.0949 µM) was 10.7% and the viability, T/C (second compound 0.003 µM, first compound 0.3 µM) was 11.1%. It also gave a viability, T/C (second compound 0.00949 µM, first compound 0.000949 µM) of 5.65%, a viability, T/C (second compound 0.00949 µM, first compound 0.003 µM) of 5.79% and a viability, T/C (second compound 0.00949 µM, first compound 0.00949 µM) of 5.79%. The viability, T/C (second compound 0.00949 µM, first compound 0.03 µM) was 6.44%, the viability, T/C (second compound 0.00949 µM, first compound 0.0949 µM) was 6.98% and the viability, T/C (second compound 0.00949 µM, first compound 0.3 µM) was 7.15%. The viability, T/C (second compound 0.03 µM, first compound 0.000949 µM) was 4.09%, the viability, T/C (second compound 0.03 µM, first compound 0.003 µM) was 4.19% and the viability, T/C (second compound 0.03 µM, first compound 0.00949 µM) was 4.86%. The viability, T/C (second compound 0.03 µM, first compound 0.03 µM) was 4.81%, the viability, T/C (second compound 0.03 µM, first compound 0.0949 µM) was 5.36% and the viability, T/C (second compound 0.03 µM, first compound 0.3 µM) was 5.18%. It also gave a viability, T/C (second compound 0.0949 µM, first compound 0.000949 µM) of 2.85%, a viability, T/C (second compound 0.0949 µM, first compound 0.003 µM) of 3.65% and a viability, T/C (second compound 0.0949 µM, first compound 0.00949 µM) of 4.21%. For the same molecule, the viability, T/C (second compound 0.0949 µM, first compound 0.03 µM) was 4.25%, the viability, T/C (second compound 0.0949 µM, first compound 0.0949 µM) was 4.38% and the viability, T/C (second compound 0.0949 µM, first compound 0.3 µM) was 4.66%. It also gave a viability, T/C (second compound 0.3 µM, first compound 0.000949 µM) of 2.87%, a viability, T/C (second compound 0.3 µM, first compound 0.003 µM) of 2.91% and a viability, T/C (second compound 0.3 µM, first compound 0.00949 µM) of 3.44%. For the same molecule, the viability, T/C (second compound 0.3 µM, first compound 0.03 µM) was 3.64%, the viability, T/C (second compound 0.3 µM, first compound 0.0949 µM) was 4.02% and the viability, T/C (second compound 0.3 µM, first compound 0.3 µM) was 3.88%.

With `C=CC(=O)Nc1cc(Nc2nccc(-c3cn(C)c4ccccc34)n2)c(OC)cc1N(C)CCN(C)C` + CCn1c(-c2cccnc2C(C)OC)c2c3cc(ccc31)N1CCOC(CC(NC(=O)C(C(C)C)N(C)C(=O)C3(F)CCN(C(=O)C#CC(C)(C)N(C)C)CC3)C(=O)N3CCCC(N3)C(=O)OCC(C)(C)C2)C1 the IC50 (second compound 0.000949 µM) was < 3.16 nM, the IC50 (second compound 0.003 µM) was < 3.16 nM and the IC50 (second compound 0.00949 µM) was < 3.16 nM. For the same molecule, the IC50 (second compound 0.03 µM) was < 3.16 nM, the IC50 (second compound 0.0949 µM) was < 3.16 nM and the IC50 (second compound 0.3 µM) was < 3.16 nM. The viability, T/C (second compound 0.000949 µM, first compound 0.00316 µM) was 15.6%, the viability, T/C (second compound 0.000949 µM, first compound 0.01 µM) was 14% and the viability, T/C (second compound 0.000949 µM, first compound 0.0316 µM) was 12.5%. The viability, T/C (second compound 0.000949 µM, first compound 0.1 µM) was 9.48%, the viability, T/C (second compound 0.000949 µM, first compound 0.316 µM) was 14.1% and the viability, T/C (second compound 0.000949 µM, first compound 1 µM) was 3.07%. For the same molecule, the viability, T/C (second compound 0.003 µM, first compound 0.00316 µM) was 13.4%, the viability, T/C (second compound 0.003 µM, first compound 0.01 µM) was 13.9% and the viability, T/C (second compound 0.003 µM, first compound 0.0316 µM) was 13%. The viability, T/C (second compound 0.003 µM, first compound 0.1 µM) was 9.78%, the viability, T/C (second compound 0.003 µM, first compound 0.316 µM) was 6.6% and the viability, T/C (second compound 0.003 µM, first compound 1 µM) was 2.75%. It also gave a viability, T/C (second compound 0.00949 µM, first compound 0.00316 µM) of 20%, a viability, T/C (second compound 0.00949 µM, first compound 0.01 µM) of 12.7% and a viability, T/C (second compound 0.00949 µM, first compound 0.0316 µM) of 11.6%. The viability, T/C (second compound 0.00949 µM, first compound 0.1 µM) was 9.64%, the viability, T/C (second compound 0.00949 µM, first compound 0.316 µM) was 6.15% and the viability, T/C (second compound 0.00949 µM, first compound 1 µM) was 7.2%. It also gave a viability, T/C (second compound 0.03 µM, first compound 0.00316 µM) of 12%, a viability, T/C (second compound 0.03 µM, first compound 0.01 µM) of 11.5% and a viability, T/C (second compound 0.03 µM, first compound 0.0316 µM) of 11.2%. It also gave a viability, T/C (second compound 0.03 µM, first compound 0.1 µM) of 7.87%, a viability, T/C (second compound 0.03 µM, first compound 0.316 µM) of 5.56% and a viability, T/C (second compound 0.03 µM, first compound 1 µM) of 3.05%. It also gave a viability, T/C (second compound 0.0949 µM, first compound 0.00316 µM) of 10.1%, a viability, T/C (second compound 0.0949 µM, first compound 0.01 µM) of 10.9% and a viability, T/C (second compound 0.0949 µM, first compound 0.0316 µM) of 10.2%. For the same molecule, the viability, T/C (second compound 0.0949 µM, first compound 0.1 µM) was 9.54%, the viability, T/C (second compound 0.0949 µM, first compound 0.316 µM) was 5.79% and the viability, T/C (second compound 0.0949 µM, first compound 1 µM) was 2.57%. For the same molecule, the viability, T/C (second compound 0.3 µM, first compound 0.00316 µM) was 12.4%, the viability, T/C (second compound 0.3 µM, first compound 0.01 µM) was 7.87% and the viability, T/C (second compound 0.3 µM, first compound 0.0316 µM) was 7.46%. It also gave a viability, T/C (second compound 0.3 µM, first compound 0.1 µM) of 5.58%, a viability, T/C (second compound 0.3 µM, first compound 0.316 µM) of 3.92% and a viability, T/C (second compound 0.3 µM, first compound 1 µM) of 2.38%.
